# Laboratory results reported in patent US20130131008A1, “LIPOPHILIC MONOPHOSPHORYLATED DERIVATIVES AND NANOPARTICLES” (BOARD OF REGENTS, THE UNIVERSITY OF TEXAS SYSTEM, priority 2011, published 2013).
# What was measured:
# MIA PaCa-2 cells = conditions: literature value; read-out: IC50 in MIA PaCa-2 cells reported by Duxbury et al.; cited from earlier work
# [1] = target: T1, dCDA partially purified from BxPC-3 cells (Homo sapiens, UniProt P32320); experiment: dCDA activity (competition) assay, conversion of dCyd to dUrd; type: biochemical; conditions: 0.5 mM dCyd, 37° C., 15 min; inhibitor […] (FIG. 2B)
# T1 construct: dCDA was partially purified from BxPC-3 cells as previously described; endogenous in cells; host or cells: BxPC-3 (ATCC CRL-1687), 40-55% ammonium sulfate fraction of the cell lysate
# Experimental: Proton NMR spectra were recorded on a 300 MHz Varian UNITYplus™ or a 500 MHz Varian INOVA. Chemical shifts (δ) of ^1H NMR spectra were recorded in parts per million (ppm) relative to tetramethylsilane (TMS), which was the reference (δ=0 ppm). ^1H NMR data are reported according to the following order: chemical shift, integration (i.e., number of hydrogen atoms), multiplicity (s=singlet, d=doublet, t=triplet, q=quartet, m=multiplet, br=broad, brs=broad singlet), and coupling constant in Hertz (Hz). […] The concentrations of dCyd and dUrd in the dCDA assay were determined using an Agilent 1260 Infinity high performance liquid chromatography (HPLC) with an Agilent ZORBAX® Eclipse Plus C18 column (4.6×150 mm, 5 μm) attached to a ZORBAX® Eclipse Plus guard column (Agilent Technologies, Inc., Santa Clara, Calif.).
# dCDA was partially purified from BxPC-3 cells as previously described. […] Protein concentration was measured using Bradford reagent from Sigma-Aldrich. […] The mixture was centrifuged at 10,000 g for 1 min, and the upper layer was analyzed using HPLC (detection wavelength, 260 nm; mobile phase, 10% methanol in water). The relevant peaks were quantified to determine the concentrations of dCyd and dUrd. […]
# T1 sequence (P32320 whole entry): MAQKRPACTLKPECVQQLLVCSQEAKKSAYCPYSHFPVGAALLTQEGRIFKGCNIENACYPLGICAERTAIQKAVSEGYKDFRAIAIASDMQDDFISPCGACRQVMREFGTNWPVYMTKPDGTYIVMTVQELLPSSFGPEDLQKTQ
compound,measurement,setting,value
"Cl.Nc1ccn([C@@H]2O[C@H](CO)[C@@H](O)C2(F)F)c(=O)n1 [Gemcitabine HCl, 2′,2′-difluorodeoxycytidine HCl, reference compound]",IC50,MIA PaCa-2 cells,40 nM
same,Inhibition of the deamination of dCyd (conversion to dUrd) by dCDA,[1],competitively inhibited the conversion of dCyd to dUrd
